Consider two molecules from patent US10035785B2, “Phosphoinositide 3-kinase inhibitors” (Karus Therapeutics Limited, priority 2012, dated 2018).

Structures are written as SMILES.

In one experiment the target is PI3K-p110β (Homo sapiens, UniProt P42338). Description: Biochemical data, PI3K binding potency, PI3K-p110β. From the text:
(§1) The following biochemical data have been generated for the exemplified compounds, showing PI3K binding potency.

The target in another experiment is PI3K-p110δ (Homo sapiens, UniProt O00329). The experiment can be described thus: Biochemical data, PI3K binding potency, PI3K-p110δ.
PI3K-p110δ, sequence (O00329 whole entry): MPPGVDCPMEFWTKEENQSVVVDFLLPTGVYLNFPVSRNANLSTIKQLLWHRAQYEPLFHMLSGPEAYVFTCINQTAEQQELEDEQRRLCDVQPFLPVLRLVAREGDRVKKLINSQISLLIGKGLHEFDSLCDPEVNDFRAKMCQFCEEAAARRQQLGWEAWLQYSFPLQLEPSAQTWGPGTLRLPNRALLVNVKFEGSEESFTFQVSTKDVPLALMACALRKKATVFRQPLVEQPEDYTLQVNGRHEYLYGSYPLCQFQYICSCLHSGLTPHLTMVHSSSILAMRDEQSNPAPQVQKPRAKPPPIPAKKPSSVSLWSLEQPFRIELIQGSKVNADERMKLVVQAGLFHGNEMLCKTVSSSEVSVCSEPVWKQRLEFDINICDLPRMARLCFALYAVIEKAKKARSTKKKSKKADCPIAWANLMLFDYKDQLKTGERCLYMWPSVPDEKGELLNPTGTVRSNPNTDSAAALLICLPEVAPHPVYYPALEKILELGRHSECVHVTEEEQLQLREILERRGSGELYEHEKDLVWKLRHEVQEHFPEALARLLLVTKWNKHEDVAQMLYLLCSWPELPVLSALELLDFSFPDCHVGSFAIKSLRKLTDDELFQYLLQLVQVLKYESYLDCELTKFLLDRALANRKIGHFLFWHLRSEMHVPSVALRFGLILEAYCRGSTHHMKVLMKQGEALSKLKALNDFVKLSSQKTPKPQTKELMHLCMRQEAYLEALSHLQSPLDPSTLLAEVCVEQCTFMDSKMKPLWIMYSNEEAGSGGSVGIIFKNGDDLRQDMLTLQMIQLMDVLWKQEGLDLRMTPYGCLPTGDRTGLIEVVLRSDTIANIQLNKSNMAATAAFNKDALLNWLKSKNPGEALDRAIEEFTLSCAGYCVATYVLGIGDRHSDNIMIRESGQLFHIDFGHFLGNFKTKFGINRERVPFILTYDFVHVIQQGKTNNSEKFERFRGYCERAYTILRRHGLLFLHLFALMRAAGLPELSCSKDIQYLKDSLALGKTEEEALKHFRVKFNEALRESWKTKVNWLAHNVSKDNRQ
PI3K-p110δ, sequence (P27986 whole entry partner): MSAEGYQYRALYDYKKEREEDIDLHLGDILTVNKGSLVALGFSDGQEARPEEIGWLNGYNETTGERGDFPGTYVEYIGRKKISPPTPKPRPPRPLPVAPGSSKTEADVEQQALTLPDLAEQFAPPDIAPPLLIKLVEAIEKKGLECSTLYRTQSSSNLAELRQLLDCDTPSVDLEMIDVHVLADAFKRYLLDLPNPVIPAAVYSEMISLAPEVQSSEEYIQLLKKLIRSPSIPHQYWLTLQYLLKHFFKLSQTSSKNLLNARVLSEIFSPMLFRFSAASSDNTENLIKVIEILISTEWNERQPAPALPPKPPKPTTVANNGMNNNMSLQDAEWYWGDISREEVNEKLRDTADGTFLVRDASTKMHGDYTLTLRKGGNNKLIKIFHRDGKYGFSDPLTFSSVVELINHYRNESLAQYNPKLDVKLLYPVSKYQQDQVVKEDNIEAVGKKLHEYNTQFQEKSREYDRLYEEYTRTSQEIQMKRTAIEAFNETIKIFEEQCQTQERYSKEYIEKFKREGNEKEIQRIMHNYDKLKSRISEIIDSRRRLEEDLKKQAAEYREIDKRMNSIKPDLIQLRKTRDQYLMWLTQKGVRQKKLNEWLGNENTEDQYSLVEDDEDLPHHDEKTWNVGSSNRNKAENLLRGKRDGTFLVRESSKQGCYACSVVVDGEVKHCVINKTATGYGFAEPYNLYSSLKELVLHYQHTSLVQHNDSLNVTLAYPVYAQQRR
Source text: as §1

In a further experiment the target is PI3K-p110γ (Homo sapiens, UniProt P48736). The experiment can be described thus: Biochemical data, PI3K binding potency, PI3K-p110γ.
PI3K-p110γ, sequence (P48736 whole entry): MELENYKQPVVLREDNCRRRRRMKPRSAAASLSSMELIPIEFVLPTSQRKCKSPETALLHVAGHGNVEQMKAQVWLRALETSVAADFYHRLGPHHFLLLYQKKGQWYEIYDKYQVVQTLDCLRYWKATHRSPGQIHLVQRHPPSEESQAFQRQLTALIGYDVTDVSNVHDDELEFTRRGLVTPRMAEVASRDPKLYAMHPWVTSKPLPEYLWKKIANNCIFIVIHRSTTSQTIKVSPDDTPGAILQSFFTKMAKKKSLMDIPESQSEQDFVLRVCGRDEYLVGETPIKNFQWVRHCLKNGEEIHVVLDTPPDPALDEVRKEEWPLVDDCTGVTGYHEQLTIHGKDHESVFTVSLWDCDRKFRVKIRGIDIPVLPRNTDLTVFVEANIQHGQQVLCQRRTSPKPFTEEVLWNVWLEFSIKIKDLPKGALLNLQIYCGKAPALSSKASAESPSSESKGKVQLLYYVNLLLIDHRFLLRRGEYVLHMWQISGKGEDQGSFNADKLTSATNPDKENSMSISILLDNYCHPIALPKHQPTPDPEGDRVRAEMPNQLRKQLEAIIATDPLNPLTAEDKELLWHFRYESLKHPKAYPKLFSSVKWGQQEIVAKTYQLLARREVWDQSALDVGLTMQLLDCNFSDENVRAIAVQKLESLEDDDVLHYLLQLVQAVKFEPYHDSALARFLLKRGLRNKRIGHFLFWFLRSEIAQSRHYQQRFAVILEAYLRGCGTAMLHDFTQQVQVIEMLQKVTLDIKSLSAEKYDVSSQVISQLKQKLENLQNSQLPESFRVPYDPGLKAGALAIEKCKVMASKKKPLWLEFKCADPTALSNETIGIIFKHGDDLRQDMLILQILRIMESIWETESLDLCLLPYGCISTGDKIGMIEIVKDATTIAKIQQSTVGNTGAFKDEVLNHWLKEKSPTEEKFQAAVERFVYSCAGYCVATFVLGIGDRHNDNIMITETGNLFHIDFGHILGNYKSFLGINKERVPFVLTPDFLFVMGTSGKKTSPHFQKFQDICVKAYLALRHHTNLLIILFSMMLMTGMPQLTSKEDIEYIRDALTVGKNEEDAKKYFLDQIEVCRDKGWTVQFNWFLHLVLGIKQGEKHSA
Source text: as §1

In a further experiment the target is PI3K-p110α (Homo sapiens, UniProt P42336). The experiment can be described thus: Biochemical data, PI3K binding potency, PI3K-p110α.
PI3K-p110α, sequence (P42336 whole entry): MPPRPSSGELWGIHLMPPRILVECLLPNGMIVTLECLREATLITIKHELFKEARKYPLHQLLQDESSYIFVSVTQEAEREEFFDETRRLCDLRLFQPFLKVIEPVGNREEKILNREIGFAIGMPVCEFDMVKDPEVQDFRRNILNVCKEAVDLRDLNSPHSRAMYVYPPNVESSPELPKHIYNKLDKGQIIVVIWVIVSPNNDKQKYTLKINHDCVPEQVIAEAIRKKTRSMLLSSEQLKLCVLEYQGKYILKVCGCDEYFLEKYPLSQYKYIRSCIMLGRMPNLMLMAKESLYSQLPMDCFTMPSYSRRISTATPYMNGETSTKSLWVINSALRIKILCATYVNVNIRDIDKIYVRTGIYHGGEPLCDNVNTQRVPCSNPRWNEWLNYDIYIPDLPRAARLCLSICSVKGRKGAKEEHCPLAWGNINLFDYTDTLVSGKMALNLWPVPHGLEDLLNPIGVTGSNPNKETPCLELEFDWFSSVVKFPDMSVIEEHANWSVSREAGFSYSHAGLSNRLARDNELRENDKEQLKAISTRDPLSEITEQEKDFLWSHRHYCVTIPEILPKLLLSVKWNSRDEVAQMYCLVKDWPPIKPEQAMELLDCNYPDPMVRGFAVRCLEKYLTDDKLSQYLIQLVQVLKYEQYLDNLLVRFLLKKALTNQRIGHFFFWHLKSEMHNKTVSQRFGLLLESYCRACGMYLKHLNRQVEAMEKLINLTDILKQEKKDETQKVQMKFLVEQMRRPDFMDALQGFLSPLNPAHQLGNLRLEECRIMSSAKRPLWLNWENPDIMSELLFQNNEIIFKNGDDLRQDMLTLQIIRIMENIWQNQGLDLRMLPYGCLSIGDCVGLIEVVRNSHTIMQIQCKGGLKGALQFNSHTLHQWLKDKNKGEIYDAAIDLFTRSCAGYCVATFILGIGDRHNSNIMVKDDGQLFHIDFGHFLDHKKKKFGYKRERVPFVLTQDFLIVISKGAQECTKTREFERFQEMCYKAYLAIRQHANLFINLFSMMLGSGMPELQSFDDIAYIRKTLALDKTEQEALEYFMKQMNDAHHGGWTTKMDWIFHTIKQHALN
PI3K-p110α, sequence (P27986 whole entry partner): as the sequence (P27986 whole entry partner) above
Source text: as §1

PI3K-p110β, sequence (P42338 whole entry): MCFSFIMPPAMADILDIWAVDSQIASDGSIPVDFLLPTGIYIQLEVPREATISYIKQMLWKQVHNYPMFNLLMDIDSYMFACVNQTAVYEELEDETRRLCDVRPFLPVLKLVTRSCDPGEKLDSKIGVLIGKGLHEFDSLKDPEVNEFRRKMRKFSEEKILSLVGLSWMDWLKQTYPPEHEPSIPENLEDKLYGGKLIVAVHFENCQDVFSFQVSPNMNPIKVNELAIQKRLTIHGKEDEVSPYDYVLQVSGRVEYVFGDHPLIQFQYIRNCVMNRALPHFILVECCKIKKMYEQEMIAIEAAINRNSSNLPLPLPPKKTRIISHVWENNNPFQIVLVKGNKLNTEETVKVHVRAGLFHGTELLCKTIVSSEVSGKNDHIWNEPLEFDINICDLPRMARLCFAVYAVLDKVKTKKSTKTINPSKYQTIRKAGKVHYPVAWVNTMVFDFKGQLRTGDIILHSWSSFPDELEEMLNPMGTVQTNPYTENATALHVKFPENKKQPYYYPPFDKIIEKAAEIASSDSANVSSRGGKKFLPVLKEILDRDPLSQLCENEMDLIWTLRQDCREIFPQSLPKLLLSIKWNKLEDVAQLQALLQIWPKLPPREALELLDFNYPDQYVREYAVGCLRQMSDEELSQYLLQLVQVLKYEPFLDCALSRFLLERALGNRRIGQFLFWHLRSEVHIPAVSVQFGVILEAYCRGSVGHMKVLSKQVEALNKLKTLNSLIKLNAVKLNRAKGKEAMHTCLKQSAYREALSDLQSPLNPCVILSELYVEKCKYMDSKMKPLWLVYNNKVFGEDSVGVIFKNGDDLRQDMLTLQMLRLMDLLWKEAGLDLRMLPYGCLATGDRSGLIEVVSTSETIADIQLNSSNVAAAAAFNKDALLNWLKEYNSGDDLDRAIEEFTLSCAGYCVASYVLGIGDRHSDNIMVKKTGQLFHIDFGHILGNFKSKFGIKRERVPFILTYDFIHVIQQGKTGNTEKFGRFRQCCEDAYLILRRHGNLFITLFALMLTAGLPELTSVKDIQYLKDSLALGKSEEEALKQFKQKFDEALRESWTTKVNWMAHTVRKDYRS
PI3K-p110β, sequence (P27986 whole entry partner): as the sequence (P27986 whole entry partner) above

For `CN(C)CCCC(=O)Nc1cc(-c2cccc3[nH]ccc23)nc(N2CCOCC2)c1` [B, 4-Dimethylamino-N-[2-(1H-indol-4-yl)-6-morpholin-4-yl-pyridin-4-yl]-butyramide], the IC50 at PI3K-p110β was 247 nM; on PI3K-p110δ, 177 nM; on PI3K-p110γ, at least 10000 nM; at PI3K-p110α, at least 10000 nM.
In the case of `O=C(CCCN1CCCC1)Nc1cc(-c2cccc3[nH]ccc23)nc(N2CCOCC2)c1` [C, N-[2-(1H-Indol-4-yl)-6-morpholin-4-yl-pyridin-4-yl]-4-pyrrolidin-1-yl-butyramide], on PI3K-p110δ, the half-maximal inhibitory concentration (IC50) is 953 nM.

In general, IC50 refers to the point on the concentration scale where inhibition reaches its midpoint. Low values mean greater potency in that assay, high ones weaker potency in that assay.
